PubChem BioAssay (NCI)
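Where inhibition never reached the appropriate level, the endpoint shown equals the highest concentration tested. Otherwise, values were interpolated linearly from a five-concentration, 48-hour dose response in 96-well plates. TGI is the concentration that stops growth completely.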

Assays:
Assay in all cases: NCI tumour cell line growth inhibition, 48 h
SN12C renal = tested on: SN12C renal
HCC-2998 colon = tested on: HCC-2998 colon
KM12 colon = tested on: KM12 colon
UACC-257 melanoma = tested on: UACC-257 melanoma
EKVX NSCLC = tested on: EKVX NSCLC
HOP-92 NSCLC = tested on: HOP-92 NSCLC
U251 CNS = tested on: U251 CNS
NCI/ADR-RES ovarian = tested on: NCI/ADR-RES ovarian
K-562 leukemia = tested on: K-562 leukemia
CCRF-CEM leukemia = tested on: CCRF-CEM leukemia
MCF7 breast = tested on: MCF7 breast
HCT-116 colon = tested on: HCT-116 colon
SK-MEL-28 melanoma = tested on: SK-MEL-28 melanoma
LOX IMVI melanoma = tested on: LOX IMVI melanoma
CAKI-1 renal = tested on: CAKI-1 renal
SK-MEL-2 melanoma = tested on: SK-MEL-2 melanoma
OVCAR-4 ovarian = tested on: OVCAR-4 ovarian
XF 498 CNS = tested on: XF 498 CNS
A549 NSCLC = tested on: A549 NSCLC
MALME-3M melanoma = tested on: MALME-3M melanoma
NCI-H226 lung = tested on: NCI-H226 lung
DMS 114 small cell lung = tested on: DMS 114 small cell lung
P388 leukemia = tested on: P388 leukemia
P388/ADR leukemia = tested on: P388/ADR leukemia
UO-31 renal = tested on: UO-31 renal
MOLT-4 leukemia = tested on: MOLT-4 leukemia
HOP-62 NSCLC = tested on: HOP-62 NSCLC
DMS 273 small cell lung = tested on: DMS 273 small cell lung
RXF 393 renal = tested on: RXF 393 renal
UACC-62 melanoma = tested on: UACC-62 melanoma
NCI-H23 lung = tested on: NCI-H23 lung
SF-539 CNS = tested on: SF-539 CNS
HT29 colon = tested on: HT29 colon
DLD-1 colon = tested on: DLD-1 colon
SK-MEL-5 melanoma = tested on: SK-MEL-5 melanoma
SNB-19 CNS = tested on: SNB-19 CNS
SNB-78 CNS = tested on: SNB-78 CNS
SN12K1 renal = tested on: SN12K1 renal
OVCAR-5 ovarian = tested on: OVCAR-5 ovarian
SF-295 CNS = tested on: SF-295 CNS
NCI-H522 lung = tested on: NCI-H522 lung
M19-MEL melanoma = tested on: M19-MEL melanoma
IGROV1 ovarian = tested on: IGROV1 ovarian
KM20L2 colon = tested on: KM20L2 colon
SF-268 CNS = tested on: SF-268 CNS
HL-60(TB) leukemia = tested on: HL-60(TB) leukemia
NCI-H460 lung = tested on: NCI-H460 lung
SW-620 colon = tested on: SW-620 colon
A498 renal = tested on: A498 renal
OVCAR-8 ovarian = tested on: OVCAR-8 ovarian
SNB-75 CNS = tested on: SNB-75 CNS
COLO 205 colon = tested on: COLO 205 colon
RPMI-8226 leukemia = tested on: RPMI-8226 leukemia
SK-OV-3 ovarian = tested on: SK-OV-3 ovarian
HOP-18 NSCLC = tested on: HOP-18 NSCLC
OVCAR-3 ovarian = tested on: OVCAR-3 ovarian
HCT-15 colon = tested on: HCT-15 colon
LXFL 529 NSCLC = tested on: LXFL 529 NSCLC
TK-10 renal = tested on: TK-10 renal
M14 melanoma = tested on: M14 melanoma
ACHN renal = tested on: ACHN renal
RXF-631 renal = tested on: RXF-631 renal
786-0 renal = tested on: 786-0 renal
SR leukemia = tested on: SR leukemia

CC1(C)CC2(CC(C)(C)N1O)NC(=O)OC2=O
TGI (SN12C renal): > 100 µM | TGI (HCC-2998 colon): > 100 µM | TGI (KM12 colon): > 100 µM | TGI (UACC-257 melanoma): > 100 µM | TGI (EKVX NSCLC): > 100 µM | TGI (HOP-92 NSCLC): > 100 µM | TGI (U251 CNS): > 100 µM | TGI (NCI/ADR-RES ovarian): > 100 µM | TGI (K-562 leukemia): > 100 µM | TGI (CCRF-CEM leukemia): > 100 µM | TGI (MCF7 breast): > 100 µM | TGI (HCT-116 colon): > 100 µM | TGI (SK-MEL-28 melanoma): > 100 µM | TGI (LOX IMVI melanoma): > 100 µM | TGI (CAKI-1 renal): > 100 µM | TGI (SK-MEL-2 melanoma): > 100 µM | TGI (OVCAR-4 ovarian): > 100 µM | TGI (XF 498 CNS): > 100 µM | TGI (A549 NSCLC): > 100 µM | TGI (MALME-3M melanoma): > 100 µM | TGI (NCI-H226 lung): > 100 µM | TGI (DMS 114 small cell lung): > 100 µM | TGI (P388 leukemia): > 100 µM | TGI (P388/ADR leukemia): > 100 µM | TGI (UO-31 renal): > 100 µM | TGI (MOLT-4 leukemia): > 100 µM | TGI (HOP-62 NSCLC): > 100 µM | TGI (DMS 273 small cell lung): > 100 µM | TGI (RXF 393 renal): > 100 µM | TGI (UACC-62 melanoma): > 100 µM | TGI (NCI-H23 lung): > 100 µM | TGI (SF-539 CNS): > 100 µM | TGI (HT29 colon): > 100 µM | TGI (DLD-1 colon): > 100 µM | TGI (SK-MEL-5 melanoma): > 100 µM | TGI (SNB-19 CNS): > 100 µM | TGI (SNB-78 CNS): > 100 µM | TGI (SN12K1 renal): > 100 µM | TGI (OVCAR-5 ovarian): > 100 µM | TGI (SF-295 CNS): > 100 µM | TGI (NCI-H522 lung): > 100 µM | TGI (M19-MEL melanoma): > 100 µM | TGI (IGROV1 ovarian): > 100 µM | TGI (KM20L2 colon): > 100 µM | TGI (SF-268 CNS): > 100 µM | TGI (HL-60(TB) leukemia): > 100 µM | TGI (NCI-H460 lung): > 31.6 µM | TGI (SW-620 colon): > 100 µM | TGI (A498 renal): > 100 µM | TGI (OVCAR-8 ovarian): > 100 µM | TGI (SNB-75 CNS): > 100 µM | TGI (COLO 205 colon): > 100 µM | TGI (RPMI-8226 leukemia): > 100 µM | TGI (SK-OV-3 ovarian): > 100 µM | TGI (HOP-18 NSCLC): > 100 µM | TGI (OVCAR-3 ovarian): > 100 µM | TGI (HCT-15 colon): > 100 µM

Cc1cccc(C)c1NC(=O)CCc1nc(=S)[nH][nH]1
TGI (SN12C renal): > 100 µM | TGI (HCC-2998 colon): > 100 µM | TGI (EKVX NSCLC): > 100 µM | TGI (HOP-92 NSCLC): > 100 µM | TGI (U251 CNS): > 100 µM | TGI (K-562 leukemia): > 100 µM | TGI (CCRF-CEM leukemia): > 100 µM | TGI (HCT-116 colon): > 100 µM | TGI (SK-MEL-28 melanoma): > 100 µM | TGI (LOX IMVI melanoma): > 100 µM | TGI (CAKI-1 renal): > 100 µM | TGI (LXFL 529 NSCLC): > 100 µM | TGI (SK-MEL-2 melanoma): > 100 µM | TGI (OVCAR-4 ovarian): > 100 µM | TGI (XF 498 CNS): > 100 µM | TGI (A549 NSCLC): > 100 µM | TGI (MALME-3M melanoma): > 100 µM | TGI (NCI-H226 lung): > 100 µM | TGI (DMS 114 small cell lung): > 100 µM | TGI (TK-10 renal): > 100 µM | TGI (UO-31 renal): > 100 µM | TGI (MOLT-4 leukemia): > 100 µM | TGI (HOP-62 NSCLC): > 100 µM | TGI (RXF 393 renal): > 100 µM | TGI (UACC-62 melanoma): > 100 µM | TGI (NCI-H23 lung): > 100 µM | TGI (M14 melanoma): > 100 µM | TGI (SF-539 CNS): > 100 µM | TGI (DLD-1 colon): > 100 µM | TGI (SNB-19 CNS): > 100 µM | TGI (SNB-78 CNS): > 100 µM | TGI (OVCAR-5 ovarian): > 100 µM | TGI (ACHN renal): > 100 µM | TGI (NCI-H522 lung): > 100 µM | TGI (M19-MEL melanoma): > 100 µM | TGI (IGROV1 ovarian): > 100 µM | TGI (KM20L2 colon): > 100 µM | TGI (SF-268 CNS): > 100 µM | TGI (HL-60(TB) leukemia): > 100 µM | TGI (NCI-H460 lung): > 100 µM | TGI (SW-620 colon): > 100 µM | TGI (A498 renal): > 100 µM | TGI (OVCAR-8 ovarian): > 100 µM | TGI (RXF-631 renal): > 100 µM | TGI (786-0 renal): > 100 µM | TGI (SNB-75 CNS): > 100 µM | TGI (COLO 205 colon): > 100 µM | TGI (RPMI-8226 leukemia): > 100 µM | TGI (SK-OV-3 ovarian): > 100 µM | TGI (HCT-15 colon): > 100 µM

CC(C)(C)C(=CS(=O)/N=C/c1ccccc1)C(C)(C)C (stereo unspecified)
TGI (SN12C renal): 51.7 µM | TGI (KM12 colon): > 100 µM | TGI (UACC-257 melanoma): > 100 µM | TGI (EKVX NSCLC): > 100 µM | TGI (HOP-92 NSCLC): 51.2 µM | TGI (U251 CNS): 84.7 µM | TGI (K-562 leukemia): 86.4 µM | TGI (CCRF-CEM leukemia): 49.8 µM | TGI (HCT-116 colon): > 100 µM | TGI (SK-MEL-28 melanoma): > 100 µM | TGI (LOX IMVI melanoma): 35.4 µM | TGI (CAKI-1 renal): > 100 µM | TGI (LXFL 529 NSCLC): 76.5 µM | TGI (SK-MEL-2 melanoma): 34.4 µM | TGI (OVCAR-4 ovarian): 70.9 µM | TGI (XF 498 CNS): 89.7 µM | TGI (A549 NSCLC): > 100 µM | TGI (MALME-3M melanoma): 75.9 µM | TGI (NCI-H226 lung): > 100 µM | TGI (DMS 114 small cell lung): 82.1 µM | TGI (TK-10 renal): > 100 µM | TGI (UO-31 renal): 95.7 µM | TGI (MOLT-4 leukemia): 54.3 µM | TGI (HOP-62 NSCLC): > 100 µM | TGI (DMS 273 small cell lung): 92 µM | TGI (RXF 393 renal): 74.5 µM | TGI (NCI-H23 lung): > 100 µM | TGI (M14 melanoma): > 100 µM | TGI (SF-539 CNS): > 100 µM | TGI (HT29 colon): > 100 µM | TGI (DLD-1 colon): > 100 µM | TGI (SK-MEL-5 melanoma): 73 µM | TGI (SNB-19 CNS): > 100 µM | TGI (SNB-78 CNS): > 100 µM | TGI (OVCAR-5 ovarian): > 100 µM | TGI (ACHN renal): > 100 µM | TGI (NCI-H522 lung): 63.2 µM | TGI (M19-MEL melanoma): > 100 µM | TGI (IGROV1 ovarian): 71.2 µM | TGI (KM20L2 colon): > 100 µM | TGI (SF-268 CNS): > 100 µM | TGI (NCI-H460 lung): 73.2 µM | TGI (SW-620 colon): > 100 µM | TGI (A498 renal): > 100 µM | TGI (SR leukemia): 58.9 µM | TGI (OVCAR-8 ovarian): > 100 µM | TGI (RXF-631 renal): > 100 µM | TGI (786-0 renal): > 100 µM | TGI (SNB-75 CNS): 63.2 µM | TGI (COLO 205 colon): > 100 µM | TGI (RPMI-8226 leukemia): 46.3 µM | TGI (SK-OV-3 ovarian): 69.8 µM | TGI (OVCAR-3 ovarian): > 100 µM | TGI (HCT-15 colon): 80.7 µM
